Reference: PMC12221116, “Novel Quinazolinones Active against Multidrug‐Resistant Mycobacterium Tuberculosis: Synthesis, Antimicrobial Evaluation, and in Silico Exploration of Penicillin‐Binding Protein 1A as a Potential Target” (Chemmedchem, 2025)
In brackets after ≈: the same amount, converted by molar mass. Several values for one entry are separate records, joined by “and”; a condition that tells them apart may be missing. Equal entries are not always repeated. Where two headings read alike, the source gives them in different places.

Key:
[1] = test system: Protein RecA; set-up: method as in ChEMBL; conditions: target CHEMBL1741171; ref ChEMBL; cited from earlier work
[2] = molecular target: Replicative DNA helicase; set-up: method as in ChEMBL; conditions: target CHEMBL1741192; ref ChEMBL; cited from earlier work
[3] = test system: Mycobacterium tuberculosis; conditions: target CHEMBL360; ref ChEMBL; cited from earlier work
[4] = test system: Mtb H37Rv; assay: Microplate Alamar Blue assay, MIC; assay type: cell-based, Mycobacterium tuberculosis; conditions: Mycobacterium tuberculosis, H37RV
[5] = test system: Mtb H37Ra; assay: Microdilution broth resazurin assay, MIC; assay type: cell-based, Mycobacterium tuberculosis
[6] = test system: M. kansasii; assay: Microplate Alamar Blue assay, MIC; assay type: cell-based, Mycobacterium kansasii; conditions: Mycobacterium kansasii; read-out: Antimycobacterial Activity MIC M. kans.
[7] = test system: M. avium; assay: Microdilution broth resazurin assay, MIC; assay type: cell-based, Mycobacterium avium; conditions: for MIC: Mycobacterium avium, read-out: Antimycobacterial Activity MIC M. avium
[8] = test system: M. smegmatis; assay: Microdilution broth resazurin assay, MIC; assay type: cell-based, Mycolicibacterium smegmatis
[9] = test system: M. aurum; assay: Microdilution broth resazurin assay, MIC; assay type: cell-based, Mycolicibacterium aurum
[10] = test system: MDR Mtb H37Rv; assay: microbe, parasite or virus in culture; assay type: cell-based; conditions: Mycobacterium tuberculosis, read-out: MIC MDR Mtb H37Rv
[11] = test system: Bacteria, incl. SA; assay: Antibacterial microdilution screening (eight strains); assay type: cell-based; conditions: read after 24 and 48 h, highest tested concentration 500 μM
[12] = test system: Fungi; assay: Antifungal microdilution screening (eight strains); assay type: cell-based; conditions: read after 24 and 48 h (72 and 120 h for TI), highest tested concentration 500 μM
[13] = test system: HepG2; assay: cells; conditions: Homo sapiens
[14] = test system: MRC-5; assay: cells; conditions: Homo sapiens
[15] = test system: HepG2; conditions: HepG2
[16] = test system: MRC-5; conditions: MRC-5
[17] = test system: Staphylococcus aureus subsp. aureus ATCC 29213, CCM 4223; assay: Antibacterial microdilution broth, quality standards; assay type: cell-based; conditions: 24 h
[18] = test system: Staphylococcus aureus subsp. aureus, MRSA ATCC 43300, CCM 4750; assay: as above; assay type: cell-based; conditions: 24 h
[19] = test system: Staphylococcus epidermidis ATCC 12228, CCM 4418; assay: as above; assay type: cell-based; conditions: 24 h
[20] = test system: Enterococcus faecalis ATCC 29212, CCM 4224; assay: as above; assay type: cell-based; conditions: 24 h
[21] = test system: Escherichia coli ATCC 25922, CCM 3954; assay: as above; assay type: cell-based; conditions: 24 h
[22] = test system: Klebsiella pneumoniae ATCC 10031, CCM 4415; assay: as above; assay type: cell-based; conditions: 24 h
[23] = test system: Acinetobacter baumannii ATCC 19606, DSM 30007; assay: as above; assay type: cell-based; conditions: 24 h
[24] = test system: Pseudomonas aeruginosa ATCC 27853, CCM 3955; assay: as above; assay type: cell-based; conditions: 24 h
[25] = test system: Candida albicans ATCC 24433, CCM 8320; assay: Antifungal microdilution broth, quality standards; assay type: cell-based; conditions: 24 h
[26] = test system: Candida krusei ATCC 6258, CCM 8271; assay: Antifungal microdilution broth, quality standards; assay type: cell-based; conditions: Pichia kudriavzevii, 24 h, read-out: MIC, visual detection, Candida krusei
[27] = test system: Candida parapsilosis ATCC 22019, CCM 8260; assay: Antifungal microdilution broth, quality standards; assay type: cell-based; conditions: Lodderomyces parapsilosis, 24 h
[28] = test system: Candida tropicalis ATCC 750, CCM 8264; assay: Antifungal microdilution broth, quality standards; assay type: cell-based; conditions: 24 h, read-out: MIC, visual detection, Candida tropicalis
[29] = test system: Aspergillus fumigatus ATCC 204305; assay: Antifungal microdilution broth, quality standards; assay type: cell-based; conditions: ATCC204305, 48 h
[30] = test system: Aspergillus flavus CCM 8363; assay: Antifungal microdilution broth, quality standards; assay type: cell-based; conditions: CCM8363, 48 h
[31] = test system: Lichtheimia corymbifera CCM 8077; assay: Antifungal microdilution broth, quality standards; assay type: cell-based; conditions: CCM8077, 48 h
[32] = test system: Trichophyton interdigitale ATCC 9533, CCM 8377; assay: Antifungal microdilution broth, quality standards; assay type: cell-based; conditions: 120 h
[33] = Microplate Alamar Blue assay, read-out: Antimycobacterial Activity MIC Mtb H37Rv
[34] = calculated from the measured MIC in mass concentration units, read-out: MIC Mtb H37Rv
[35] = Mycobacterium tuberculosis, H37RA; calculated from the measured MIC in mass concentration units; read-out: MIC Mtb H37Ra
[36] = Mycolicibacterium smegmatis, read-out: Antimycobacterial Activity MIC M. smeg.
[37] = HepG2, 24 h, read-out: IC50 for HepG2 [24 h]
[38] = HepG2, 72 h, read-out: IC50 for HepG2 [72 h]
[39] = MRC5, 24 h, read-out: IC50 for MRC-5 [24 h]
[40] = MRC5, 72 h, read-out: IC50 for MRC-5 [72 h]
[41] = Mycobacterium tuberculosis, H37RA; read-out: Antimycobacterial Activity MIC Mtb H37Ra
[42] = Mycolicibacterium aurum; read-out: Antimycobacterial Activity MIC M. aurum

Compound: O=c1c2ccccc2nc(/C=C/c2cccnc2)n1CCc1ccccc1 [CHEMBL1366795]
- EC50 [1]: 12 µM

Compound: O=c1c2ccccc2nc(/C=C/c2cccnc2)n1Cc1ccccc1 [CHEMBL1567670]
- AC50 [2]: 13.6 µM and 9.29 µM
- EC50 [1]: 9.92 µM

Compound: Cc1nc2ccc(-c3ccccc3)cc2c(=O)n1-c1ccccc1 [CHEMBL4442905]
- MIC Mycobacterium tuberculosis [3]: > 64 mg/L

Compound: C#CCNc1ccc2c(=O)n(-c3ccccc3)c(C)nc2c1 [CHEMBL4444032]
- MIC Mycobacterium tuberculosis [3]: 4 mg/L (≈ 13.8 µM)

Compound: COc1ccc(Cn2c(C)nc3cc(Cl)ccc3c2=O)cc1 [Compound 17]
- MIC [4, 33]: 12.5 mg/L
- MIC [4, 34]: 40 µM
- MIC ([4]; read-out: Antimycobacterial Activity MIC Mtb H37Rv, Table S5 matching pairs series A and B): > 100 mg/L
- Antimycobacterial Activity MIC Mtb H37Ra [5]: 7.81 mg/L
- MIC ([5]; Mycobacterium tuberculosis, H37RA, read-out: Antimycobacterial Activity MIC Mtb H37Ra): 7.81 mg/L
- MIC [5, 35]: 25 µM
- MIC [6]: > 100 mg/L
- MIC [7]: ≥ 500 mg/L
- Antimycobacterial Activity MIC M. avium ([7]; Table S5 matching pairs series A and B): ≥ 500 mg/L
- Antimycobacterial Activity MIC M. smeg. [8]: 31.25 mg/L
- MIC [8, 36]: 31.2 mg/L (≈ 99.3 µM)
- Antimycobacterial Activity MIC M. aurum [9]: 15.625 mg/L
- MIC ([9]; Mycolicibacterium aurum, read-out: Antimycobacterial Activity MIC M. aurum): 15.6 mg/L (≈ 49.6 µM)
- MIC [10]: 40 µM (≈ 12.6 µg/mL)
- MIC Bacteria, incl. SA [11]: inactive
- MIC Fungi [12]: inactive
- IC50 [13, 37]: > 50 µM
- IC50 [13, 38]: > 50 µM
- IC50 [14, 39]: > 100 µM
- IC50 [14, 40]: > 100 µM

Compound: Cc1nc2cc(Cl)ccc2c(=O)n1Cc1ccc(F)cc1 [Compound 19]
- MIC [4, 33]: 25 mg/L
- MIC [4, 34]: 83 µM
- MIC [5, 35]: 26 µM
- MIC [5, 41]: 7.81 mg/L
- MIC [6]: > 100 mg/L
- MIC [7]: 15.6 mg/L (≈ 51.6 µM)
- MIC ([8]; Mycolicibacterium smegmatis; read-out: Antimycobacterial Activity MIC M. smeg.): 31.2 mg/L (≈ 103 µM)
- MIC [9, 42]: 31.2 mg/L (≈ 103 µM)
- MIC [10]: 41 to 165 µM (≈ 12.4 to 50 µg/mL)
- MIC Bacteria, incl. SA [11]: inactive
- MIC Fungi [12]: inactive
- IC50 [13, 37]: > 50 µM
- IC50 [13, 38]: > 50 µM
- IC50 [14, 39]: > 100 µM
- IC50 [14, 40]: > 100 µM

Compound: Cc1nc2cc(Cl)ccc2c(=O)n1/N=C/c1ccc(O)c([N+](=O)[O-])c1 [Compound 25]
- MIC [4, 33]: 12.5 mg/L
- MIC [4, 34]: 35 µM
- MIC [5, 35]: 87 µM
- MIC [5, 41]: 31.2 mg/L
- MIC [6]: > 100 mg/L
- MIC [7]: 62.5 mg/L (≈ 174 µM)
- MIC [8, 36]: 31.2 mg/L (≈ 87.1 µM)
- MIC [9, 42]: ≥ 62.5 mg/L
- MIC [10]: 17 to 70 µM (≈ 6.1 to 25.1 µg/mL)
- MIC Bacteria, incl. SA [11]: inactive
- MIC Fungi [12]: inactive
- nontoxic for human cell lines up to [15]: up to 1000 μM
- nontoxic for human cell lines up to [16]: up to 1000 μM
- IC50 [13, 37]: > 1000 µM
- IC50 [14, 39]: > 1000 µM

Compound: CNC(C)C1CCC(N)C(OC2C(N)CC(N)C(OC3OCC(C)(O)C(NC)C3O)C2O)O1 (stereo not shown) [gentamicin]
- MIC ([17]; 95% growth inhibition, read-out: MIC spectrophotometric detection, S. aureus): 1 mg/L (≈ 2.09 µM)
- MIC ([17]; naked eye, read-out: MIC visual detection, S. aureus): 1 mg/L (≈ 2.09 µM)
- MIC ([18]; 95% growth inhibition, read-out: MIC spectrophotometric detection, MRSA): 16 to 32 mg/L (≈ 33.5 to 67 µM)
- MIC ([18]; naked eye, read-out: MIC visual detection, MRSA): 16 to 32 mg/L (≈ 33.5 to 67 µM)
- MIC ([19]; 95% growth inhibition, read-out: MIC spectrophotometric detection, S. epidermidis): > 8 mg/L
- MIC ([19]; naked eye, read-out: MIC visual detection, S. epidermidis): > 8 mg/L
- MIC ([20]; read-out: MIC spectrophotometric detection, E. faecalis): 16 mg/L (≈ 33.5 µM)
- MIC ([20]; naked eye, read-out: MIC visual detection, E. faecalis): 8 mg/L (≈ 16.8 µM)
- MIC ([21]; 95% growth inhibition, read-out: MIC spectrophotometric detection, E. coli): 1 to 2 mg/L (≈ 2.09 to 4.19 µM)
- MIC ([21]; naked eye, read-out: MIC visual detection, E. coli): 1 to 2 mg/L (≈ 2.09 to 4.19 µM)
- MIC ([22]; 95% growth inhibition, read-out: MIC spectrophotometric detection, K. pneumoniae): > 8 mg/L
- MIC ([22]; naked eye, read-out: MIC visual detection, K. pneumoniae): > 8 mg/L
- MIC ([23]; 95% growth inhibition, read-out: MIC spectrophotometric detection, A. baumannii): 2 mg/L (≈ 4.19 µM)
- MIC ([23]; naked eye, read-out: MIC visual detection, A. baumannii): 2 mg/L (≈ 4.19 µM)
- MIC ([24]; 95% growth inhibition, read-out: MIC spectrophotometric detection, P. aeruginosa): 0.5 mg/L (≈ 1.05 µM)
- MIC ([24]; naked eye, read-out: MIC visual detection, P. aeruginosa): 0.5 mg/L (≈ 1.05 µM)

Compound: C[C@@H](c1ncncc1F)[C@](O)(Cn1cncn1)c1ccc(F)cc1F [voriconazole]
- IC50 ([25]; read-out: IC50, spectrophotometric detection, Candida albicans): 0.03 mg/L (≈ 0.0859 µM)
- MIC ([25]; read-out: MIC, visual detection, Candida albicans): > 16 mg/L
- MIC [26]: 0.5 mg/L (≈ 1.43 µM)
- IC50 ([27]; read-out: IC50, spectrophotometric detection, Candida parapsilosis): 0.03 mg/L (≈ 0.0859 µM)
- MIC ([27]; read-out: MIC, visual detection, Candida parapsilosis): 8 mg/L (≈ 22.9 µM)
- MIC [28]: > 16 mg/L
- IC50 ([29]; read-out: IC50, spectrophotometric detection, Aspergillus fumigatus): 0.5 mg/L (≈ 1.43 µM)
- MIC ([29]; read-out: MIC, visual detection, Aspergillus fumigatus): 1 mg/L (≈ 2.86 µM)
- IC50 ([30]; read-out: IC50, spectrophotometric detection, Aspergillus flavus): 4 mg/L (≈ 11.5 µM)
- MIC ([30]; read-out: MIC, visual detection, Aspergillus flavus): > 16 mg/L
- IC50 ([31]; read-out: IC50, spectrophotometric detection, Lichtheimia corymbifera): > 16 mg/L
- MIC ([31]; read-out: MIC, visual detection, Lichtheimia corymbifera): > 16 mg/L
- IC50 ([32]; read-out: IC50, spectrophotometric detection, Trichophyton interdigitale): > 16 mg/L
- MIC ([32]; read-out: MIC, visual detection, Trichophyton interdigitale): > 16 mg/L
